Assay results taken from publication PMC12257394, “Design, Synthesis, and Biological Evaluation of Ferrocenyl–Cyclo-(Gly‑L‑Pro) Hybrids Sensitizing Multidrug-Resistant Cancer Cells to Anticancer Agents” (ACS Medicinal Chemistry Letters, 2025).
Entries after “also recorded” stand apart in the source; their conditions may differ.

Target: T1, ABCB1 (Homo sapiens, UniProt P08183)
T1 construct: ABCB1-overexpressing SW620V cells; endogenous in cells; host or cells: SW620V (vincristine-resistant variant of SW620, developed in the authors' laboratory by drug selection)
Assay: Calcein accumulation transport assay in SW620V cells
Format: cell-based
Conditions: 10 µM compound; for increase of intracellular retention of calcein: ABCB1, SW620V cells; for inhibition of ABCB1 activity (calcein accumulation assay): SW620V cells, n = 3
Excerpt: To confirm the hypothesis of direct interaction between putative ABC protein inhibitors and transporter molecules, we conducted a series of experiments based on fluorescent probe transport as described previously. None of the compounds affected 2′,7′-bis(2-carboxyethyl)-5-(and-6)-carboxyfluorescein (BCECF) efflux out of SW620M cells, indicating the lack of interaction between the putative inhibitors and ABCC1 (Figure A). […] As anticipated, none of the newly synthesized compounds affected dye accumulation in drug-sensitive SW620 cells (data not shown).
SW620 cells and their drug-resistant variants overexpressing ABCB1 (SW620V), ABCC1 (SW620M), or ABCG2 (SW620Mito) were trypsinized and suspended in a complete cell - culture medium prewarmed to 37°C at a final density of approximately 1 × 10^6/mL. The tested compounds were added from DMSO stock solutions to a final concentration of 10 µM.
Respective samples were supplemented with a specific fluorescent marker (100 nM calcein AM for ABCB1, 100 nM BCECF AM for ABCC1, and 1 µM pheophorbide A for A BCG2). For the control, given protein-specific inhibitors (10 µM verapamil for ABCB1, 25 µM MK-571 for ABCC1, and 10 µM Ko143 for ABCG2) were added to parallel, tested compound-free, samples. For ABCB1 and ABCG2 assays (dye accumulation assays), intracellular fluorescence was measured by flow cytometry (FACSymphony A1, Becton, Dickinson and Company, New Jersey, USA) immediately after dye addition (time 0) and every 3–5 min up to approximately 30 min using a flow cytometer set at 488 nm excitation and 530/30 nm emission for the calcein/ABCB1 assay and 400 nm excitation and 655/8 nm emission for the pheophorbide A/ABCG2 assay. For the BCECF/ABCC1 assay (dye exclusion assay), the sample was preincubated at 37°C for 10 min, centrifuged (400 × g, 10 min, RT), and then resuspended in fresh medium. The intracellular BCECF concentration was then immediately measured at 488 nm excitation and 530/30 nm emission (time 0). Further measurements were performed at 15 - min intervals. All samples were incubated at 37°C between measurements. The accumulation/exclusion curves were plotted, and the slope of the initial accumulation rate or dye retention half time was evaluated using the GraphPad Prism software version 10 (GraphPad Software, Boston, Massachusetts USA). The difference between the a ccumulation rate/half time value for dye only and the tested compound/inhibitor samples was expressed as a given protein activity measure.

T1 sequence (P08183 whole entry): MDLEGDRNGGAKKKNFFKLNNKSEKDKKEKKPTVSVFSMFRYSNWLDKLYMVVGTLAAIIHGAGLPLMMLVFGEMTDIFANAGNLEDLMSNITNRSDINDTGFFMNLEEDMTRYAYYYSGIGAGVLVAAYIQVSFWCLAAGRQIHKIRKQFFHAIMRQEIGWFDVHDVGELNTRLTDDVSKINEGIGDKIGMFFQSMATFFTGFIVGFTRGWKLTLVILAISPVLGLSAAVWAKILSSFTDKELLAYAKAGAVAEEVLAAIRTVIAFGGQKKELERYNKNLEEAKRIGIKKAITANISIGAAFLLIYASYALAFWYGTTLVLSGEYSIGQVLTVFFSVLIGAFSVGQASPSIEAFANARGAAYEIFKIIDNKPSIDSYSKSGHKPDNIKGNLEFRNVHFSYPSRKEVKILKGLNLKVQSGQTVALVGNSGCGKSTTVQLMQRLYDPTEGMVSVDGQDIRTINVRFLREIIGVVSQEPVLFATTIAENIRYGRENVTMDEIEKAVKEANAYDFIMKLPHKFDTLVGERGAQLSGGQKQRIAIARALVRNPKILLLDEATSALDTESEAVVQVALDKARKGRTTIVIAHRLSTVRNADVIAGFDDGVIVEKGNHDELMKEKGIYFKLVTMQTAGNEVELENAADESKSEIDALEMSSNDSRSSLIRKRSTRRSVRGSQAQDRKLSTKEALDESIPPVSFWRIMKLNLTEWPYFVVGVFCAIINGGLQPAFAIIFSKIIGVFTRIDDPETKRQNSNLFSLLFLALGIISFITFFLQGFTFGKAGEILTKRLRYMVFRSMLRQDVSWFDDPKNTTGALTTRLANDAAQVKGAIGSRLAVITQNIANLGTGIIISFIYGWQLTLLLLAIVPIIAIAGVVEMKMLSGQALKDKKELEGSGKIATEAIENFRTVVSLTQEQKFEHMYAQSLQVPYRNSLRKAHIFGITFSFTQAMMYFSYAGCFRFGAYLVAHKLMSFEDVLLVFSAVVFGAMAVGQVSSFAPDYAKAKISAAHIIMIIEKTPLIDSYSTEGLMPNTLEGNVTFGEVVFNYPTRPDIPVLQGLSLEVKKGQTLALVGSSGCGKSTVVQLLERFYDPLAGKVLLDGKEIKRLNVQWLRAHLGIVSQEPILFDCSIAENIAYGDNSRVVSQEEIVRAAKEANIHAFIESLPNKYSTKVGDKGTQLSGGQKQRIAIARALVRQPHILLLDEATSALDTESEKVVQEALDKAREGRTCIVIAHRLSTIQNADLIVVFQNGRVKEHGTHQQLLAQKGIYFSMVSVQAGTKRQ

Row | SMILES | increase of intracellular retention of calcein | inhibition of ABCB1 activity (calcein accumulation assay)
1 | O=C1N/C(=C\c2ccccc2-[c-]2cccc2)C(=O)N2CCC[C@@H]12.[Fe+2].c1cc[cH-]c1 [(S,Z)-4b] | up to 3.4 fold | efficiently inhibited ABCB1 activity; also recorded: inhibit calcein efflux
2 | O=C1N/C(=C\c2ccc(-[c-]3cccc3)cc2)C(=O)N2CCC[C@@H]12.[Fe+2].c1cc[cH-]c1 [(S,Z)-4d] | up to 3.4 fold | efficiently inhibited ABCB1 activity; also recorded: inhibit calcein efflux
